Data published in patent US8394969B2, “Cyclic benzimidazole derivatives useful as anti-diabetic agents” (Merck Sharp & Dohme Corp., priority 2008, dated 2013).
Counter-ions that a name gives are not always drawn.

Molecular target: recombinant human AMPK complex 1 (containing α1β1γ1) (Homo sapiens, UniProt Q13131+Q9Y478)
Assay: […] (in vitro AMPK activation assay)
Type: biochemical
Conditions: read-out: % Maximum AMP Activation of human AMPK Complex 1, recombinant human AMPK complex 1 (α1β1γ1); basal activity subtracted

Chain of recombinant human AMPK complex 1 (containing α1β1γ1) (Q13131 whole entry): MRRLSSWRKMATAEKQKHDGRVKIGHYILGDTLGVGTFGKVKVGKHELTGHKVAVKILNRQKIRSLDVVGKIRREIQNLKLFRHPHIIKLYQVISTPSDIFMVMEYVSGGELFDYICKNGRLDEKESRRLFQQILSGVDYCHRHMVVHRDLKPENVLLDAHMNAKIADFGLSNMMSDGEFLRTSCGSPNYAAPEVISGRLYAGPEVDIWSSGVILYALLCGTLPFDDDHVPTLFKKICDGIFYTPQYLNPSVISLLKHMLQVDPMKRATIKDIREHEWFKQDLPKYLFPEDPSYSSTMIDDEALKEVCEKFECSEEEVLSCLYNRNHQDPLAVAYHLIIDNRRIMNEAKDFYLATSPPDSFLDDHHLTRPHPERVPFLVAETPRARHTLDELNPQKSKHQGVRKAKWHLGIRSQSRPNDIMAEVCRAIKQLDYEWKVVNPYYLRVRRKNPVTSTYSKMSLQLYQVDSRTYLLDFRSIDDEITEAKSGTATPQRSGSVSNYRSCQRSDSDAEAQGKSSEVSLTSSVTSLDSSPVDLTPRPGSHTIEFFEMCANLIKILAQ
Chain of recombinant human AMPK complex 1 (containing α1β1γ1) (Q9Y478 whole entry): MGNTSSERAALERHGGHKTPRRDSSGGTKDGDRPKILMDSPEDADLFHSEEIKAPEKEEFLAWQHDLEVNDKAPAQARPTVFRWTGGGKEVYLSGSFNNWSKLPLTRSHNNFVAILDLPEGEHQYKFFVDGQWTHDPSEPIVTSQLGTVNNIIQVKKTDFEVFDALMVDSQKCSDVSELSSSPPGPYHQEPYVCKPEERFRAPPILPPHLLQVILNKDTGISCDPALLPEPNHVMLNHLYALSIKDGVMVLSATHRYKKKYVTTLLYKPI
Chain of recombinant human AMPK complex 1 (containing α1β1γ1) (P54619 whole entry partner): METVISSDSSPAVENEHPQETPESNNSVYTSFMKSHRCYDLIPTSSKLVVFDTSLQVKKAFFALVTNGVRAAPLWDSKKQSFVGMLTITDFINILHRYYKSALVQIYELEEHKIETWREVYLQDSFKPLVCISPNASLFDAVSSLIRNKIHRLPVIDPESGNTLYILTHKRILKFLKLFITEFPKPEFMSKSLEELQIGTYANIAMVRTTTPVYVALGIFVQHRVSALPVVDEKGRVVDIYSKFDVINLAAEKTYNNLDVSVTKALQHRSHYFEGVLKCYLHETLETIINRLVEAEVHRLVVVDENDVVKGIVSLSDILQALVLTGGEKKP

| Structure (SMILES) | Emax [%] |
| --- | --- |
| CCCCc1ccc(-c2cc3nc(Oc4ccc(C)c(C(=O)O)c4)[nH]c3cc2Cl)cc1 [Example 344, Ammonium 5-{[5-(4-butylphenyl)-6-chloro-1H-benzimidazol-2-yl]oxy}-2-methylbenzoate] | > 80 |

Same assay, conditions: recombinant human AMPK complex 1 (α1β1γ1); basal activity subtracted; read-out: % Maximum AMP Activation of human AMPK Complex 1

| Structure (SMILES) | Emax [%] |
| --- | --- |
| O=C(O)c1cc(Oc2nc3cc(-c4ccc(CO)cc4)c(Cl)cc3[nH]2)ccc1Cl [Example 60, 2-Chloro-5-[6-chloro-5-(4-hydroxymethyl-phenyl)-1H-benzoimidazol-2-yloxy]-benzoic acid] | > 80 |
| O=C(O)Cc1cccc(Oc2nc3cc(C#Cc4ccccc4)c(Cl)cc3[nH]2)c1 [Example 22, [3-(6-Chloro-5-phenylethynyl-1H-benzoimidazol-2-yloxy)-phenyl]-acetic acid] | > 80 |
| Cc1ccc(Oc2nc3cc(-c4cccc(CO)n4)c(Cl)cc3[nH]2)cc1C(=O)O [Example 332, 2-(3-carboxy-4-methylphenoxy)-6-chloro-5-[6-(hydroxymethyl)pyridin-2-yl]-1H-3,1-benzimidazol-3-ium formate] | > 80 |
| Cc1ccc(Oc2nc3cc(C#Cc4ccc(-n5ccnc5)cc4)c(Cl)cc3[nH]2)cc1C(=O)O [Example 86, 5-[6-Chloro-5-(4-imidazol-1-yl-phenylethynyl)-1H-benzoimidazol-2-yloxy]-2-methyl-benzoic acid] | > 80 |
| Cc1ccc(Oc2nc3cc(C#Cc4ccc(C(F)(F)F)cc4)c(Cl)cc3[nH]2)cc1C(=O)O [Example 93, 5-[6-Chloro-5-(4-trifluoromethyl-phenylethynyl)-1H-benzoimidazol-2-yloxy]-2-methyl benzoic acid] | > 80 |
| Cc1ccc(Oc2nc3cc(C#Cc4ccc(-c5cnc[nH]5)cc4)c(Cl)cc3[nH]2)cc1C(=O)O [Example 75, 5-{6-Chloro-5-[4-(3H-imidazol-4-yl)-phenylethynyl]-1H-benzoimidazol-2-yloxy}-2-methyl-benzoic acid] | > 80 |
| Cc1ccc(Oc2nc3cc(C#Cc4ccc(-c5cc[nH]n5)cc4)c(Cl)cc3[nH]2)cc1C(=O)O [Example 74, 5-{6-Chloro-5-[4-(1H-pyrazol-3-yl)-phenylethynyl]-1H-benzoimidazol-2-yloxy}-2-methyl-benzoic acid] | > 80 |
| Cc1ccc(Oc2nc3cc(C#Cc4ccc(CN)cc4)c(Cl)cc3[nH]2)cc1C(=O)O [Example 72, 5-[5-(4-Aminomethyl-phenylethynyl)-6-chloro-1H-benzimidazol-2-yloxy]-2-methyl-benzoic acid] | > 80 |
| Cc1ccc(Oc2nc3cc(-c4ccc5c(c4)c(CN(C)C)cn5C)c(Cl)cc3[nH]2)cc1C(=O)O [Example 353, 5-[6-Chloro-5-(3-dimethylaminomethyl-1-methyl-1H-indol-5-yl)-1H-benzoimidazol-2-yloxy]-2-methyl-benzoic acid] | > 80 |
| NS(=O)(=O)c1cccc(Oc2nc3cc(-c4ccc(-c5ccccc5)cc4)c(Cl)cc3[nH]2)c1 [Example 220, 3-(5-Biphenyl-4-yl-6-chloro-1H-benzoimidazol-2-yloxy)-benzenesulfonamide] | > 80 |
| Cc1ccc(Oc2nc3cc(-c4ccc(C(C)C)c5c4CCN5C)c(Cl)cc3[nH]2)cc1C(=O)O [Example 268, 5-[6-Chloro-5-(7-isopropyl-1-methyl-2,3-dihydro-1H-indol-4-yl)-1H-benzoimidazol-2-yloxy]-2-methyl-benzoic acid] | > 80 |
| Cc1ccc(Oc2nc3cc(-c4ccc(-c5ccccc5)cc4)c(Cl)cc3n2CC(=O)O)cc1C(=O)O [Example 224, 5-(5-Biphenyl-1-yl-1-carboxymethyl-6-chloro-1H-benzoimidazol-2-yloxy)-2-methyl-benzoic acid] | > 80 |
| Cc1ccc(Oc2nc3cc(-c4ccc5ccn(C)c5c4)c(Cl)cc3[nH]2)cc1C(=O)O [Example 284, 5-[6-Chloro-5-(1-methyl-1H-indol-6-yl)-1H-benzoimidazol-2-yloxy]-2-methyl-benzoic acid] | > 80 |
| Cc1ccc(Oc2nc3cc(-c4ccc(-c5ccc(O)cc5)cc4)c(Cl)cc3[nH]2)cc1C(=O)O [Example 104, 5-[6-Chloro-5-(4-hydroxy-biphenyl-4-yl)-1H-benzoimidazol-2-yloxy]-2-methyl-benzoic acid] | > 80 |
| Cc1ccc(Oc2nc3cc(C4=CCN(c5ncccn5)CC4)c(Cl)cc3[nH]2)cc1C(=O)O [Example 158, 2-(3-carboxy-4-methylphenoxy)-6-chloro-5-(1-pyrimidin-2-yl-1,2,3,6-tetrahydropyridin-4-yl)-1H-3,1-benzimidazol-3-ium trifluoroacetate] | > 80 |
| O=C(O)c1ccc(Oc2nc3cc(-c4ccc(-c5ccccc5)cc4)c(Cl)cc3[nH]2)cc1 [Example 38, 4-(5-Biphenyl-4-yl-6-chloro-1H-benzoimidazol-2-yloxy)-benzoic acid] | > 80 |
| Cc1ccc(Oc2nc3cc(-c4cnn(CC(C)C)c4)c(Cl)cc3[nH]2)cc1C(=O)O [Example 159, 5-[6-Chloro-5-(1-isobutyl-1H-pyrazol-4-yl)-1H-benzoimidazol-2-yloxy]-2-methyl-benzoic acid] | > 80 |
| Cc1ccc(Oc2nc3cc(C#Cc4ccc(-c5nc[nH]n5)cc4)c(Cl)cc3[nH]2)cc1C(=O)O [Example 78, 5-{6-Chloro-5-[4-(1H-[1,2,4]triazol-3-yl)-phenylethynyl]-1H-benzoimidazol-2-yloxy}-2-methyl-benzoic acid] | > 80 |
| COC(=O)c1cc(Oc2nc3cc(C#Cc4ccccc4C)c(Cl)cc3[nH]2)ccc1C [Example 99, 5-(6-Chloro-5-o-tolylethynyl-1H-benzoimidazol-2-yloxy)-2-methyl-benzoic acid methyl ester] | > 80 |
| Cc1ccc(Oc2nc3cc(-c4ccc5ccccc5c4)c(Cl)cc3[nH]2)cc1C(=O)O [Example 66, 5-{[6-chloro-5-(2-naphthyl)-1H-benzimidazol-2-yl]oxy}-2-methylbenzoic acid] | > 80 |
| O=C(O)c1ccc(F)c(Oc2nc3cc(-c4ccc(-c5ccccc5)cc4)c(Cl)cc3[nH]2)c1 [Example 209, 3-(5-Biphenyl-4-yl-6-chloro-1H-benzoimidazol-2-yloxy)-4-fluoro-benzoic acid] | > 80 |
| COC(=O)c1cc(Oc2nc3cc(-c4ccc(-c5ccccc5)cc4)c(Cl)cc3[nH]2)cc(C)c1C(=O)OC [Example 15, 5-(5-Biphenyl-4-yl-6-chloro-1H-benzoimidazol-2-yloxy)-3-methyl-phtalic acid dimethyl ester] | > 80 |
| CC(=O)c1ccc2cc(-c3cc4nc(Oc5ccc(C)c(C(=O)O)c5)[nH]c4cc3Cl)ccc2c1 [Example 298, 5-[5-(6-Acetyl-naphthalen-2-yl)-6-chloro-1H-benzoimidazol-2-yloxy]-2-methyl-benzoic acid] | > 80 |

Same assay, conditions: recombinant human AMPK complex 1 (α1β1γ1); read-out: EC50

| Structure (SMILES) | EC50 [nM] |
| --- | --- |
| Cc1ccc(Oc2nc3cc(-c4ccc5c(c4)OCCN5C)c(Cl)cc3[nH]2)cc1C(=O)O [Example 151, 2-(3-carboxy-4-methylphenoxy)-6-chloro-5-(4-methyl-3,4-dihydro-2H-1,4-benzoxazin-7-yl)-1H-3,1-benzimidazol-3-ium chloride] | 22 |
| Cc1ccc(Oc2nc3cc(-c4ccc(C(C)(C)O)cc4)c(Cl)cc3[nH]2)cc1C(=O)O [Example 183, 5-({6-chloro-5-[4-(1-hydroxy-1-methylethyl)phenyl]-1H-benzimidazol-2-yl}oxy)-2-methylbenzoic acid] | 16 |
